According to patent EP0497091A1, “Bridged cyclic ketal derivatives” (GLAXO GROUP LIMITED, priority 1991, dated 1992):
Structures can show the parent of a compound that is named as a salt.

These molecules were tested against T1, squalene synthase (Rattus norvegicus, UniProt Q02769) (assay: Inhibition of squalene synthase ([14C]squalene production from [2-14C]farnesylpyrophosphate)). Conditions: not given.
T1 construct: from tissue; host or cells: rat liver homogenate
T1 sequence (Q02769 1-416): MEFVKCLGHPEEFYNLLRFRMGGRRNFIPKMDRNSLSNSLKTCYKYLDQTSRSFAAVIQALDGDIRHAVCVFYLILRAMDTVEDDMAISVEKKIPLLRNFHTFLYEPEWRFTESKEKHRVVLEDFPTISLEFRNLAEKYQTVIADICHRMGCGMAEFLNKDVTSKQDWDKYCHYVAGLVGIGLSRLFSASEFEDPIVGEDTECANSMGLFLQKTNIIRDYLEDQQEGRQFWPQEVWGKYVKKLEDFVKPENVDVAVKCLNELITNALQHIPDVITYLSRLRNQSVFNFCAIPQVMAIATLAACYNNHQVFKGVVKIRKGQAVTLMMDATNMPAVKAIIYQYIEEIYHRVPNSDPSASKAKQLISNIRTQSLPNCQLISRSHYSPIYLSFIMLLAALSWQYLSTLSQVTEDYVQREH
Format: biochemical
Description: A. Biller et al. in J. […] [¹⁴C]squalene is separated from unreacted substrate on thin layer chromatography plates and determined by liquid scintillation counting. […] Acta, Volume 877, 50-60 (1986) and modified to include measurement of cholesterol by high performance liquid chromatography (h.p.l.c.). […] A. […] [¹⁴C] Squalene was separated from unreacted substrate on thin layer chromatography plates and determined by liquid scintillation counting. Inhibition of squalene synthase was quantified by incubating rat liver homogenate with various concentrations of the test compound in the presence of [2-¹⁴C] farnesylpyrophosphate. The concentration of compound giving 50% inhibition of [¹⁴C] squalene production in a 30 minute assay was taken as the IC₅₀ value.

| SMILES | IC50 [nM] |
| --- | --- |
| C=C(CC[C@]12O[C@H](C(=O)O)[C@@](O)(C(=O)O)[C@](C(=O)O)(O1)[C@H](OC(=O)/C=C/[C@@H](C)C[C@@H](C)CC)[C@H]2O)C(=O)[C@H](C)Cc1ccccc1 [Example 3, [1S-[1α(5S^*),3α,4β,5α,6α(2E,4R^*,6R^*),7β]] 1-(5-Methyl-3-methylene-4-oxo-6-phenylhexyl)-4,6,7-trihydroxy-2,8-dioxabicyclo[3.2.1]octane-3,4,5-tricarboxylic acid, 6-(4,6-dimethyl-2-octenoate)] | < 100 |
| CCC(CC[C@]12O[C@H](C(=O)O)[C@@](O)(C(=O)O)[C@](C(=O)O)(O1)[C@H](OC(=O)/C=C/[C@@H](C)C[C@@H](C)CC)[C@H]2O)C(=O)[C@H](C)Cc1ccccc1 (relative stereo) [Example 10, [1S-[1α(3R*S*,5S*),3α,4β,5α,6α(2E,4R*,6R*),7β]] 1-(3-Ethyl-5-methyl-4-oxo-6-phenylhexyl)-4,6,7-trihydroxy-2,8-dioxabicyclo[3.2.1]octane-3,4,5-tricarboxylic acid, 6-(4,6-dimethyl-2-octenoate)] | < 100 |
| CCC(C)CC(C)CCC(=O)OC1C(O)C2(CCC(C)C(=O)CCc3ccccc3)OC(C(=O)O)C(O)(C(=O)O)C1(C(=O)O)O2 (stereo not drawn) [Example 21, [1S-[1α[3R*(S*)],3α,4β,5α,6α(4S*,6R*),7β]] 1-(3-Methyl-4-oxo-6-phenylhexyl)-4,6,7-trihydroxy-2,8-dioxabicyclo[3.2.1]octane-3,4,5-tricarboxylic acid, 6-(4,6-dimethyloctanoate)] | < 100 |
| CC[C@H](C)C[C@H](C)/C=C/C(=O)O[C@@H]1[C@@H](O)[C@@]2(C/C=C(\C)C(=O)[C@H](C)Cc3ccccc3)O[C@H](C(=O)O)[C@@](O)(C(=O)O)[C@]1(C(=O)O)O2 (relative stereo) [Example 2, [1S-[1α[(E),5S*],3α,4β,5α,6α(2E,4R*,6R*),7β]] 1-(3,5-Dimethyl-4-oxo-6-phenyl-2-hexenyl)-4,6,7-trihydroxy-2,8-dioxabicyclo[3.2.1]octane-3,4,5-tricarboxylic acid, 6-(4,6-dimethyl-2-octenoate)] | < 100 |
| CCC(C)CC(C)CCC(=O)OC1C(O)C2(CCCC(=O)CCc3ccccc3)OC(C(=O)O)C(O)(C(=O)O)C1(C(=O)O)O2 (stereo not drawn) [Example 19, [1S-[1α,3α,4β,5α,6α(4S*,6R*),7β]] 1-(4-Oxo-6-phenylhexyl)-4,6,7-trihydroxy-2,8-dioxabicyclo[3.2.1]octane-3,4,5-tricarboxylic acid, 6-(4,6-dimethyloctanoate)] | < 100 |
| CC[C@H](C)C[C@H](C)/C=C/C(=O)O[C@@H]1[C@@H](O)[C@@]2(C/C=C(\C)[C@@H](O)[C@H](C)Cc3ccccc3)O[C@H](C(=O)O)[C@@](O)(C(=O)O)[C@]1(C(=O)O)O2 (relative stereo) [Example 5, [1S-[1α[(E),4R*,5S*],3α,4β,5α,6α(2E,4R*,6R*),7β]] 1-(4-Hydroxy-3,5-dimethyl-6-phenyl-2-hexenyl)-4,6,7-trihydroxy-2,8-dioxabicyclo[3.2.1]octane-3,4,5-tricarboxylic acid, 6-(4,6-dimethyl-2-octenoate)] | < 100 |
| C=C(CC[C@]12O[C@H](C(=O)O)[C@@](O)(C(=O)O)[C@](C(=O)O)(O1)[C@H](OC(=O)NC)[C@H]2O)[C@@H](OC(C)=O)[C@H](C)Cc1ccccc1 (relative stereo) [Example 67, [1S-[1α(4R*,5S*),3α,4β,5α,6α,7β]] 1-(4-Acetyloxy-5-methyl-3-methylene-6-phenylhexyl)-4,7-dihydroxy-6-[[(methylamino)carbonyl]oxy]-2,8-dioxabicyclo[3.2.1]octane-3,4,5-tricarboxylic acid] | < 100 |
| C=C(CC[C@]12O[C@H](C(=O)O)[C@@](O)(C(=O)O)[C@](C(=O)O)(O1)[C@H](OC(=O)OCCCC)[C@H]2O)[C@@H](OC(C)=O)[C@H](C)Cc1ccccc1 (relative stereo) [Example 60, [1S-[1α(4R*,5S*)3α,4β,5α,6α,7β]] 1-(4-Acetyloxy-5-methyl-3-methylene-6-phenylhexyl)-6-[(butoxycarbonyl)oxy]-4,7-dihydroxy-2,8-dioxabicyclo[3.2.1]octane-3,4,5-tricarboxylic acid] | < 100 |
| C=C(CC[C@]12O[C@H](C(=O)O)[C@@](O)(C(=O)O)[C@](C(=O)O)(O1)[C@H](OC(=O)NCC)[C@H]2O)[C@@H](OC(C)=O)[C@H](C)Cc1ccccc1 (relative stereo) [Example 66, [1S-[1α(4R*,5S*),3α,4β,5α,6α,7β]] 1-(4-Acetyloxy-5-methyl-3-methylene-6-phenylhexyl)-6-[[(ethylamino)carbonyl]oxy]4,7-dihydroxy-2,8-dioxabicyclo[3.2.1]octane-3,4,5-tricarboxylic acid] | < 100 |
| C=C(CCC12OC(C(=O)O)C(OC(C)=O)(C(=O)O)C(C(=O)O)(O1)C(OC(=O)C=CC(C)CC(C)CC)C2OC(C)=O)C(OC(C)=O)C(C)Cc1ccccc1 (stereo not drawn) [Example 25, [1S-[1α(4R*,5S*),3α,4β,5α,6α(2E,4R*,6R*),7β]] 1-(4-Acetyloxy-5-methyl-3-methylene-6-phenylhexyl)-4,7-diacetyloxy-6-hydroxy-2,8-dioxabicyclo[3.2.1]octane-3,4,5-tricarboxylic acid, 6-(4,6-dimethyl-2-octenoate)] | < 100 |
| CC[C@H](C)C[C@H](C)/C=C/C(=O)O[C@@H]1[C@@H](O)[C@@]2(C/C=C(\C)C[C@H](C)Cc3ccccc3)O[C@H](C(=O)O)[C@@](O)(C(=O)O)[C@]1(C(=O)O)O2 (relative stereo) [Example 9, [1S-[1α[(E),5R*],3α,4β,5α,6α(2E,4R*,6R*),7β]] 1-(3,5-Dimethyl-6-phenyl-2-hexenyl)-4,6,7-trihydroxy-2,8-dioxabicyclo[3.2.1]octane-3,4,5-tricarboxylic acid, 6-(4,6-dimethyl-2-octenoate)] | < 100 |
| CCC(C)CC(C)CCC(=O)OC1C(O)C2(CCC(C)=CC(C)Cc3ccccc3)OC(C(=O)O)C(O)(C(=O)O)C1(C(=O)O)O2 (mixture of isomers) [Example 15, [1S-[1α[(Z/E),5S*],3α,4β,5α,6α(4S*6R*),7β]] 1-(3,5-Dimethyl-6-phenyl-3-hexenyl)-4,6,7-trihydroxy-2,8-dioxabicyclo[3.2.1]octane-3,4,5-tricarboxylic acid, 6-(4,6-dimethyloctanoate)] | < 100 |
| CC[C@H](C)C[C@H](C)CCC(=O)O[C@@H]1[C@@H](O)[C@@]2(C/C=C(\C)[C@@H](O)[C@H](C)Cc3ccccc3)O[C@H](C(=O)O)[C@@](O)(C(=O)O)[C@]1(C(=O)O)O2 (relative stereo) [Example 14, [1S-[1α[(E),4R*,5S*],3α,4β,5α,6α(4S*,6R*),7β]] 1-(3,5-Dimethyl-4-hydroxy-6-phenyl-2-hexenyl)-4,6,7-trihydroxy-2,8-dioxabicyclo[3.2.1]octane-3,4,5-tricarboxylic acid, 6-(4,6-dimethyloctanoate)] | < 100 |

Same assay, conditions: rat liver homogenate; [2-¹⁴C] farnesylpyrophosphate as substrate; 50% inhibition of [¹⁴C] squalene production in a 30 minute assay; read-out: IC₅₀

| IC50 [nM] | SMILES |
| --- | --- |
| < 100 | COC(=O)OC1C(O)C2(CCC(C)C(OC(C)=O)C(C)Cc3ccccc3)OC(C(=O)O)C(O)(C(=O)O)C1(C(=O)O)O2 (stereo not drawn) [Compound (I) in Example 65, [1S-[1α(3R*S*,4S*,5S*),3α,4β,5α,6α,7β]] 1-(4-Acetyloxy-3,5-dimethyl-6-phenylhexyl)-4,7-dihydroxy-6-[[(methoxycarbonyl]oxy]-2,8-dioxabicyclo[3.2.1]octane-3,4,5-tricarboxylic acid] |
| < 100 | C=C(CCC12OC(C(=O)O)C(O)(C(=O)O)C(C(=O)O)(O1)C(OC(=O)CCCCC(C)=O)C2O)C(OC(C)=O)C(C)Cc1ccccc1 (stereo not drawn) [Example 53, [1S-[1α(4R*,5S*),3α,4β,5α,6α,7β]] 1-(4-Acetyloxy-5-methyl-3-methylene-6-phenylhexyl)-4,6,7-trihydroxy-2,8-dioxabicyclo[3.2.1]octane-3,4,5-tricarboxylic acid, 6-(6-oxo-heptanoate)] |
| < 100 | CCC(C)CC(C)/C=C/C(=O)OC1C(O)C2(CCC(C)C(O)C(C)Cc3ccccc3)OC(C(=O)O)C(O)(C(=O)O)C1(C(=O)O)O2 (single isomer, unassigned) [Example 8, [1S-[1α[3R*(S*),4R*(S*),5S*],3α,4β,5α,6α(2E,4R*,6R*),7β]] 1-(4-Hydroxy-3,5-dimethyl-6-phenylhexyl)-4,6,7-trihydroxy-2,8-dioxabicyclo[3.2.1]octane-3,4,5-tricarboxylic acid, 6-(4,6-dimethyl-2-octenoate), isomer 3 and isomer 4] |
| < 100 | CCC(C)CC(C)CCC(=O)OC1C(O)C2(CCC(C)C(=O)C(C)Cc3ccccc3)OC(C(=O)O)C(O)(C(=O)O)C1(C(=O)O)O2 (single isomer, unassigned; isomer 1) [isomer 1 in Example 16, [1S-[1α(3R*(S*),5S*),3α,4β,5α,6α(4S*,6R*),7β]] 1-(3,5-Dimethyl-4-oxo-6-phenylhexyl)-4,6,7-trihydroxy-2,8-dioxabicyclo[3.2.1]octane-3,4,5-tricarboxylic acid, 6-(4,6-dimethyloctanoate), 3,4,5-tripotassium salt] |
